Experimental findings from US4496551A (priority 1983, dated 1985) are described below.

The subject of the first test is Erysiphe cichoracearum. Nature of the test: cucumber powdery mildew control on cucumber seedlings. Conditions: Golovinomyces cichoracearum, 168 h, 7 days. Type of test: in vivo. In a few lines:
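Compounds at 100 ppm in water with 6% acetone and 250 ppm TREM 014 surfactant, sprayed to run-off on cucumber seedlings. Inoculation with Erysiphe cichoracearum spores the following day; disease rated after 7 days in a growth room against untreated plants.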
The molecule `C[Si](C)(Cn1ccnc1)c1cccc2ccccc12` [(1H-Imidazol-1-ylmethyl)dimethyl(1-naphthalenyl)silane] returned a pest or weed control at 100 ppm of 100%.

Molecule `C[Si](C)(Cn1ccnc1)c1ccc(Oc2ccccc2)cc1` [(1H-Imidazol-1-ylmethyl)dimethyl(4-phenoxyphenyl)silane] had a pest or weed control at 100 ppm of 100%.

For `C[Si](C)(Cn1ccnc1)c1ccc(Cl)c(Cl)c1` [(3,4-Dichlorophenyl)(1H-imidazol-1-ylmethyl)dimethylsilane], the pest or weed control at 100 ppm is 100%.

Take `C[Si](Cn1ccnc1)(c1ccccc1)c1ccc(Cl)cc1` (centres unmarked) [(4-Chlorophenyl)(1H-imidazol-1-ylmethyl)methyl(phenyl)silane]: the pest or weed control at 100 ppm was 100%.

A further test deals with Venturia inaequalis. Kind of test: apple scab control on apple seedlings. In kind it is in vivo. Particulars: Venturia inaequalis; 100 ppm. In a few lines: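 Apple seedlings sprayed to run-off with 100 ppm compound suspension (6% acetone, 250 ppm TREM 014 surfactant). Inoculated next day with Venturia inaequalis spores; 24 hours at 20° in saturated humidity, then 10-12 days in growth room. Scab lesions compared with untreated plants.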
Regarding `C[Si](C)(Cn1ccnc1)c1cccc2ccccc12` [(1H-Imidazol-1-ylmethyl)dimethyl(1-naphthalenyl)silane], the pest or weed control at 100 ppm is 40%.

In turn, `C[Si](C)(Cn1ccnc1)c1ccc(Oc2ccccc2)cc1` [(1H-Imidazol-1-ylmethyl)dimethyl(4-phenoxyphenyl)silane] gave a pest or weed control at 100 ppm of 100%.

For the molecule `C[Si](C)(Cn1ccnc1)c1ccc(Cl)c(Cl)c1` [(3,4-Dichlorophenyl)(1H-imidazol-1-ylmethyl)dimethylsilane], the pest or weed control at 100 ppm came out at 80%.

Regarding `C[Si](Cn1ccnc1)(c1ccccc1)c1ccc(Cl)cc1` (centres unmarked) [(4-Chlorophenyl)(1H-imidazol-1-ylmethyl)methyl(phenyl)silane], the pest or weed control at 100 ppm came to 100%.

For the next test, the system named is Cercospora arachidicola. Nature of the test: peanut early leafspot control on peanut seedlings. Particulars: Mycosphaerella arachidis, 336 h. In kind it is in vivo. In a few lines: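 Compounds dissolved in acetone (6% of final volume) and suspended at 100 ppm in water with 250 ppm TREM 014, sprayed to run-off on seedlings. Cercospora arachidicola inoculated next day; 24 h saturated humidity at 27°, then 14 days growth room before disease and leafspot rating.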
`C[Si](C)(Cn1ccnc1)c1cccc2ccccc12` [(1H-Imidazol-1-ylmethyl)dimethyl(1-naphthalenyl)silane] returned a pest or weed control at 100 ppm of 0%.

The molecule `C[Si](C)(Cn1ccnc1)c1ccc(Oc2ccccc2)cc1` [(1H-Imidazol-1-ylmethyl)dimethyl(4-phenoxyphenyl)silane] came in with a pest or weed control at 100 ppm of 0%.

For the molecule `C[Si](C)(Cn1ccnc1)c1ccc(Cl)c(Cl)c1` [(3,4-Dichlorophenyl)(1H-imidazol-1-ylmethyl)dimethylsilane], the pest or weed control at 100 ppm was found to be 0%.

Molecule `C[Si](Cn1ccnc1)(c1ccccc1)c1ccc(Cl)cc1` (centres unmarked) [(4-Chlorophenyl)(1H-imidazol-1-ylmethyl)methyl(phenyl)silane] displayed a pest or weed control at 100 ppm of 100%.

Another test concerns 5 Phytophthora species.
Assay: not given
Type of test: cell-based. Particulars: 200.0 ppm in agar, 22° C., 6 days; controlled = radial growth 1 mm or less.
On to `C[Si](C)(Cn1ccnc1)c1ccc(Oc2ccccc2)cc1` [(1H-Imidazol-1-ylmethyl)dimethyl(4-phenoxyphenyl)silane], for which the “No. of 5 Phytophthora species controlled in vitro” value came to 4.

Take `C[Si](Cn1ccnc1)(c1ccccc1)c1ccc(Cl)cc1` (centres unmarked) [(4-Chlorophenyl)(1H-imidazol-1-ylmethyl)methyl(phenyl)silane]: the “No. of 5 Phytophthora species controlled in vitro” value is 0.

The test system of the next test is Puccinia recondita var. tritici. Kind of test: wheat leaf rust control on wheat seedlings. Conditions: 100 ppm, sprayed day before inoculation. Type of test: in vivo. The method in brief: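 Compounds at 100 ppm (6% acetone, 250 ppm polyhydric alcohol ester surfactant in water) sprayed to run-off on wheat seedlings; inoculated next day with P. recondita spores. Kept 24 h at saturated humidity, 20°, then 7 days in growth room before rust pustule rating.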
The molecule `C[Si](C)(Cn1ccnc1)c1cccc2ccccc12` [(1H-Imidazol-1-ylmethyl)dimethyl(1-naphthalenyl)silane] registered a pest or weed control at 100 ppm of 0%.

`C[Si](C)(Cn1ccnc1)c1ccc(Oc2ccccc2)cc1` [(1H-Imidazol-1-ylmethyl)dimethyl(4-phenoxyphenyl)silane]: the pest or weed control at 100 ppm was 60%.

Molecule `C[Si](C)(Cn1ccnc1)c1ccc(Cl)c(Cl)c1` [(3,4-Dichlorophenyl)(1H-imidazol-1-ylmethyl)dimethylsilane] registered a pest or weed control at 100 ppm of 0%.

Take `C[Si](Cn1ccnc1)(c1ccccc1)c1ccc(Cl)cc1` (centres unmarked) [(4-Chlorophenyl)(1H-imidazol-1-ylmethyl)methyl(phenyl)silane]: the pest or weed control at 100 ppm stood at 100%.

The test system of another test is Pythium aphanadermatum. Kind of test: Pythium control on coated cotton seeds. Type of test: in vivo. Conditions: 168 h, 0.5 gm/kg seed. From the text:
Several compounds of the previous examples were incorporated into a proprietary formulation and used to coat cotton seeds at a rate of 2 gm/kg seed. After being thoroughly coated, the seeds were allowed to air dry at room temperature. The cotton seeds were then planted into soil amended with the fungus Pythium aphanadermatum, sand, and corn meal at a rate sufficient to kill most untreated seeds. The seeds were held at room temperature for 1 week, after which time disease ratings were made.
For the molecule `C[Si](C)(Cn1ccnc1)c1ccc(Cl)c(Cl)c1` [(3,4-Dichlorophenyl)(1H-imidazol-1-ylmethyl)dimethylsilane], the pest or weed control at 500 mg/kg amounted to 15%.

Staying with this test, now noted: 168 h, 2 gm/kg seed, 1 week.
`C[Si](C)(Cn1ccnc1)c1ccc(Oc2ccccc2)cc1` [(1H-Imidazol-1-ylmethyl)dimethyl(4-phenoxyphenyl)silane]: the pest or weed control at 2000 mg/kg was 0%.

For the next test, the system named is Phytophthora infestans. Nature of the test: whole plant or invertebrate. Particulars: Phytophthora infestans, in Solanum lycopersicum, 168 h, read-out: % Control of Tomato Late Blight. Type of test: in vivo.
For `C[Si](C)(Cn1ccnc1)c1cccc2ccccc12` [(1H-Imidazol-1-ylmethyl)dimethyl(1-naphthalenyl)silane], the pest or weed control at 100 ppm is 0%.

In the case of `C[Si](C)(Cn1ccnc1)c1ccc(Oc2ccccc2)cc1` [(1H-Imidazol-1-ylmethyl)dimethyl(4-phenoxyphenyl)silane], the pest or weed control at 100 ppm stood at 80%.

As for `C[Si](C)(Cn1ccnc1)c1ccc(Cl)c(Cl)c1` [(3,4-Dichlorophenyl)(1H-imidazol-1-ylmethyl)dimethylsilane], the pest or weed control at 100 ppm turned out to be 0%.

Consider `C[Si](Cn1ccnc1)(c1ccccc1)c1ccc(Cl)cc1` (centres unmarked) [(4-Chlorophenyl)(1H-imidazol-1-ylmethyl)methyl(phenyl)silane], for which the pest or weed control at 100 ppm worked out at 0%.

The subject of a further test is Rhizoctonia solani. Kind of test: rice sheath blight control on rice seedlings. In kind it is in vivo. Conditions: Rhizoctonia solani, 168 h, 7 days. The method in brief: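 Rice seedlings sprayed to run-off with 100 ppm compound suspension (6% acetone, 250 ppm surfactant), then inoculated next day with bran/mycelium of Rhizoctonia solani. After 7 days in a growth room, sheath blight disease was rated.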
The molecule `C[Si](C)(Cn1ccnc1)c1cccc2ccccc12` [(1H-Imidazol-1-ylmethyl)dimethyl(1-naphthalenyl)silane] registered a pest or weed control at 100 ppm of 0%.

`C[Si](C)(Cn1ccnc1)c1ccc(Oc2ccccc2)cc1` [(1H-Imidazol-1-ylmethyl)dimethyl(4-phenoxyphenyl)silane] yielded a pest or weed control at 100 ppm of 70%.

For the molecule `C[Si](C)(Cn1ccnc1)c1ccc(Cl)c(Cl)c1` [(3,4-Dichlorophenyl)(1H-imidazol-1-ylmethyl)dimethylsilane], the pest or weed control at 100 ppm was 0%.

On to `C[Si](Cn1ccnc1)(c1ccccc1)c1ccc(Cl)cc1` (centres unmarked) [(4-Chlorophenyl)(1H-imidazol-1-ylmethyl)methyl(phenyl)silane], for which the pest or weed control at 100 ppm is 0%.

A further test has as its system Pyricularia oryzae. Nature of the test: whole plant or invertebrate. Type of test: in vivo. Particulars: 168 h, read-out: % Control of Rice Blast.
`C[Si](C)(Cn1ccnc1)c1cccc2ccccc12` [(1H-Imidazol-1-ylmethyl)dimethyl(1-naphthalenyl)silane]: the pest or weed control at 100 ppm turned out to be 0%.

In the case of `C[Si](C)(Cn1ccnc1)c1ccc(Oc2ccccc2)cc1` [(1H-Imidazol-1-ylmethyl)dimethyl(4-phenoxyphenyl)silane], the pest or weed control at 100 ppm is 70%.

Regarding `C[Si](C)(Cn1ccnc1)c1ccc(Cl)c(Cl)c1` [(3,4-Dichlorophenyl)(1H-imidazol-1-ylmethyl)dimethylsilane], the pest or weed control at 100 ppm is 0%.

Regarding `C[Si](Cn1ccnc1)(c1ccccc1)c1ccc(Cl)cc1` (centres unmarked) [(4-Chlorophenyl)(1H-imidazol-1-ylmethyl)methyl(phenyl)silane], the pest or weed control at 100 ppm was found to be 0%.

For the next test, the system named is Erysiphe graminis. Kind of test: barley powdery mildew control on barley seedlings. Type of test: in vivo. Particulars: Blumeria graminis, 168 h; 100 ppm, 7 days. The procedure:
Several compounds of the previous examples were again dissolved in acetone in an amount equal to 6% of the final volume and then suspended at a concentration of 100 ppm in purified water containing 250 ppm of the surfactant TREM 014 (polyhydric alcohol esters). This suspension was sprayed to the point of run-off on barley seedlings. The following day, the plants were inoculated with a spore suspension of the fungus Erysiphe graminis, causal agent of barley powdery mildew, and incubated in a growth room for 7 days. Disease ratings were then made. Treated plants had little or no powdery mildew in contrast to untreated plants which were covered with powdery mildew.
On to `C[Si](C)(Cn1ccnc1)c1cccc2ccccc12` [(1H-Imidazol-1-ylmethyl)dimethyl(1-naphthalenyl)silane], for which the pest or weed control at 100 ppm is 0%.

`C[Si](C)(Cn1ccnc1)c1ccc(Oc2ccccc2)cc1` [(1H-Imidazol-1-ylmethyl)dimethyl(4-phenoxyphenyl)silane] gave a pest or weed control at 100 ppm of 0%.

Molecule `C[Si](C)(Cn1ccnc1)c1ccc(Cl)c(Cl)c1` [(3,4-Dichlorophenyl)(1H-imidazol-1-ylmethyl)dimethylsilane] returned a pest or weed control at 100 ppm of 80%.

A further test relates to Pythium aphanadermatum. Kind of test: Pythium control on coated corn seeds. Conditions: 504 h, 2 gm/kg seed, 49° F. 2 weeks then 70° F. 1 week. Type of test: in vivo. The procedure: Several compounds of the previous examples were incorporated into a proprietary formulation and used to coat corn seeds at a rate of 2 gm/kg seed. After being thoroughly coated, the seeds were allowed to air dry at room temperature. The seeds were then planted into soil amended with a mixture of the fungus Pythium aphanadermatum, sand, and corn meal at a rate sufficient to kill most untreated seeds. The seeds were held at 49° F. for 2 weeks and then at 70° F. for 1 additional week. After this time disease ratings were made.
For `C[Si](C)(Cn1ccnc1)c1cccc2ccccc12` [(1H-Imidazol-1-ylmethyl)dimethyl(1-naphthalenyl)silane], the pest or weed control at 2000 mg/kg turned out to be 27%.

Consider `C[Si](C)(Cn1ccnc1)c1ccc(Oc2ccccc2)cc1` [(1H-Imidazol-1-ylmethyl)dimethyl(4-phenoxyphenyl)silane], for which the pest or weed control at 2000 mg/kg is 5%.

As for `C[Si](C)(Cn1ccnc1)c1ccc(Cl)c(Cl)c1` [(3,4-Dichlorophenyl)(1H-imidazol-1-ylmethyl)dimethylsilane], the pest or weed control at 2000 mg/kg came out at 30%.

A further test deals with Helminthosporium maydis. Nature of the test: southern corn leaf blight control on corn seedlings. In kind it is in vivo. Conditions: Bipolaris maydis, 168 h. The method in brief:
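Corn seedlings were sprayed to run-off with 100 ppm compound (6% acetone, 250 ppm TREM 014), inoculated next day with H. maydis spores, then kept 24 h at 20° in saturated humidity and 7 more days in a growth room. Lesions were rated as disease score.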
Turning to `C[Si](C)(Cn1ccnc1)c1cccc2ccccc12` [(1H-Imidazol-1-ylmethyl)dimethyl(1-naphthalenyl)silane], the pest or weed control at 100 ppm worked out at 0%.

Take `C[Si](C)(Cn1ccnc1)c1ccc(Oc2ccccc2)cc1` [(1H-Imidazol-1-ylmethyl)dimethyl(4-phenoxyphenyl)silane]: the pest or weed control at 100 ppm stood at 0%.

`C[Si](C)(Cn1ccnc1)c1ccc(Cl)c(Cl)c1` [(3,4-Dichlorophenyl)(1H-imidazol-1-ylmethyl)dimethylsilane] registered a pest or weed control at 100 ppm of 70%.

`C[Si](Cn1ccnc1)(c1ccccc1)c1ccc(Cl)cc1` (centres unmarked) [(4-Chlorophenyl)(1H-imidazol-1-ylmethyl)methyl(phenyl)silane] returned a pest or weed control at 100 ppm of 0%.

The subject of a further test is Monilinia fructicola. Nature of the test: stone fruit brown rot colony growth inhibition on canned peach halves. Conditions: 120 h, dipped 3 minutes, five days, percent growth inhibition of colonies, read-out: % Control Brown Rot. Type of test: cell-based. The text has this:
Several compounds of the previous examples were again dissolved in acetone in an amount equal to 5% of the final volume and then suspended at a concentration of 100 ppm in purified water containing 700 ppm of the surfactant TREM 014 (polyhydric alcohol esters). Canned peach halves were dipped in this suspension for three minutes and then placed to air dry in sterile containers. Upon drying, the peach halves were inoculated with two pieces of Monilinia fructicola, causal agent of stone fruit brown rot, mycelium and then incubated in the sterile containers for five days. At that time the radii of the colonies' growth were measured on each peach. […] Percent disease contol (percent growth inhibition of colonies on treated peaches as compared to that of colonies on untreated peaches) is expressed in the table below.
As to `C[Si](C)(Cn1ccnc1)c1ccc(Oc2ccccc2)cc1` [(1H-Imidazol-1-ylmethyl)dimethyl(4-phenoxyphenyl)silane], the inhibition of growth at 100 ppm turned out to be 80%.

For `C[Si](Cn1ccnc1)(c1ccccc1)c1ccc(Cl)cc1` (centres unmarked) [(4-Chlorophenyl)(1H-imidazol-1-ylmethyl)methyl(phenyl)silane], the inhibition of growth at 100 ppm turned out to be 45%.
